The source of these data is patent US10532106B2 (priority 2014, dated 2020).

In the experiment the target is T1, MT1-MMP hemopexin domain (Homo sapiens, UniProt P50281).
T1 construct: residues Cys319-Gly511 from the human gene; His6 (N); made in house; host or cells: HEK293 (transient), pEXPR-IBA42 vector
Nature of the experiment: Competition assay using fluorescence polarisation. Type of experiment: binding. To be noted: for Kd: read-out: Kd. The text has this:
Here, a pre-formed complex of PEX with the fluorescent PEX-binding tracer is titrated with free, non-fluoresceinated bicyclic peptide. Since all 17-69-based peptides are expected to bind at the same site, the titrant will displace the fluorescent tracer from PEX. Dissociation of the complex can be measured quantitatively, and the Kd of the competitor (titrant) to the target protein determined. The advantage of the competition method is that the affinities of non-fluoresceinated bicyclic peptides can be determined accurately and rapidly.
Subsequently, the non-fluorescent competitor bicyclic peptide (usually just the bicycle core sequence) is titrated, such that it displaces the fluorescent tracer from the target protein. The displacement of the tracer is measured and associated with a drop in fluorescence polarisation. The drop in fluorescence polarisation is proportional to the fraction of target protein bound with the non-fluorescent titrant, and thus is a measure of the affinity of titrant to target protein.
The raw data is fit to the analytical solution of the cubic equation that describes the equilibria between fluorescent tracer, titrant, and binding protein. The fit requires the value of the affinity of fluorescent tracer to the target protein, which can be determined separately by direct binding FP experiments (see previous section).

Where [1] appears, read: Table 8, substitutions at position 4.

Where two headings read alike, the source gives them in different places. Numbered stars: 1 amine (or outer) side, 2 acyl side, 3 side chain; on linkers, the order of the positions; unused ones are H or OH. Bridge positions count the residues as written; N and C are the ends. Square brackets hold non-standard residues; d marks the D form. Peptide text beside a SMILES is read from it. * marks the point of attachment. DOTA = O=C(O)CN1CCN(CC(=O)O)CCN(CC(=O)*)CCN(CC(=O)O)CC1; Phe(F5) = N[C@@H](Cc1c(F)c(F)c(F)c(F)c1F)C(=O)O; Phe(4-Br) = N[C@@H](Cc1ccc(Br)cc1)C(=O)O; 1Nal = N[C@@H](Cc1cccc2ccccc12)C(=O)O; TBMB = c1c(C[*:1])cc(C[*:3])cc1C[*:2]; Cha = N[C@@H](CC1CCCCC1)C(=O)O; Chg = N[C@H](C(=O)O)C1CCCCC1; Phg = N[C@H](C(=O)O)c1ccccc1; Tle = CC(C)(C)[C@H](N)C(=O)O; Sar = CNCC(=O)O

By Kd is commonly meant the concentration at which binding is half-saturated.

Regarding `C[C@H](NC(=O)CN1CCN(CC(=O)O)CCN(CC(=O)O)CCN(CC(=O)O)CC1)C(=O)N[C@H]1CSCc2cc3cc(c2)CSC[C@H](NC(=O)[C@@H](C)NC(=O)[C@H](Cc2cccc4ccccc24)NC(=O)[C@H](CCC(=O)O)NC(=O)[C@H](CC(N)=O)NC(=O)[C@@H](C)NC1=O)C(=O)N[C@@H](CCC(=O)O)C(=O)N[C@@H](CC(=O)O)C(=O)N[C@@H](Cc1ccccc1)C(=O)N[C@@H](Cc1ccc(Br)cc1)C(=O)N[C@@H](CC(=O)O)C(=O)N[C@@H](C(C)(C)C)C(=O)N[C@H](C(N)=O)CSC3` [17-69-07-N248, DOTA-A-(17-69-07) D-Ala1 1Nal4 D-Ala5 4BrPhe9 tBuGly11] ({DOTA}-AC[dA]NE[1Nal][dA]CEDF[Phe(4-Br)]D[Tle]C-NH2; linker 2-8-15 via TBMB), the “potency / activity toward MT1-MMP, in words” value is given as “retained potency”. In addition, the Kd (Table 15, DOTA-linked peptides) came out at 0.5 nM.

`CC[C@H](C)[C@@H]1NC(=O)[C@H](CC(=O)O)NC(=O)[C@H](Cc2ccc(O)cc2)NC(=O)[C@H](Cc2ccccc2)NC(=O)[C@H](CC(=O)O)NC(=O)[C@H](CCC(=O)O)NC(=O)[C@@H]2CSCc3cc(cc(c3)CSC[C@H](NC(C)=O)C(=O)N[C@@H](Cc3ccc(O)cc3)C(=O)N[C@@H](CC(N)=O)C(=O)N[C@@H](CCC(=O)O)C(=O)N[C@@H](CC3CCCCC3)C(=O)NCC(=O)N2)CSC[C@@H](C(N)=O)NC1=O` [17-69-07-N139, Ac-(17-69-07) Cha4] (Ac-CYNE[Cha]GCEDFYDIC-NH2; linker 1-7-14 via TBMB): the Kd under setting [1] stood at 362 nM.

For the molecule `CC[C@H](C)[C@@H]1NC(=O)[C@H](CC(=O)O)NC(=O)[C@H](Cc2ccc(O)cc2)NC(=O)[C@H](Cc2ccccc2)NC(=O)[C@H](CC(=O)O)NC(=O)[C@H](CCC(=O)O)NC(=O)[C@@H]2CSCc3cc(cc(c3)CSC[C@H](NC(C)=O)C(=O)N[C@@H](Cc3ccc(O)cc3)C(=O)N[C@@H](CC(N)=O)C(=O)N[C@@H](CCC(=O)O)C(=O)N[C@@H](Cc3cccc4ccccc34)C(=O)NCC(=O)N2)CSC[C@@H](C(N)=O)NC1=O` [17-69-07-N067, Ac-(17-69-07) 1NAl4] (Ac-CYNE[1Nal]GCEDFYDIC-NH2; linker 1-7-14 via TBMB), the Kd under setting [1] was determined as 0.36 ± 0.12 nM.

Consider `CC[C@H](C)[C@@H]1NC(=O)[C@H](CC(=O)O)NC(=O)[C@H](Cc2ccc(O)cc2)NC(=O)[C@H](Cc2ccccc2)NC(=O)[C@H](CC(=O)O)NC(=O)[C@H](CCC(=O)O)NC(=O)[C@@H]2CSCc3cc(cc(c3)CSC[C@H](NC(=O)[C@H](C)NC(=O)CN(C)C(=O)CN(C)C(=O)CN(C)C(=O)CN(C)C(=O)CN(C)C(=O)CN(C)C(=O)CN(C)C(=O)CN(C)C(=O)CN(C)C(=O)CN(C)C(=O)CNC(C)=O)C(=O)N[C@@H](Cc3ccc(O)cc3)C(=O)N[C@@H](CC(N)=O)C(=O)N[C@@H](CCC(=O)O)C(=O)N[C@@H](Cc3ccccc3)C(=O)NCC(=O)N2)CSC[C@@H](C(N)=O)NC1=O` [17-69-07-N225, Ac-G-Sar10-A-(17-69-07)] (Ac-G[Sar][Sar][Sar][Sar][Sar][Sar][Sar][Sar][Sar][Sar]ACYNEFGCEDFYDIC-NH2; linker 13-19-26 via TBMB), for which the Kd (Table 11, G-Sar10-A addition) came out at 0.95 ± 0.1 nM.

For `CC[C@H](C)[C@@H]1NC(=O)[C@H](CC(=O)O)NC(=O)[C@H](Cc2ccc(O)cc2)NC(=O)[C@H](Cc2ccccc2)NC(=O)[C@H](CC(=O)O)NC(=O)[C@H](CCC(=O)O)NC(=O)[C@@H]2CSCc3cc(cc(c3)CSC[C@H](NC(C)=O)C(=O)N[C@@H](Cc3ccc(O)cc3)C(=O)N[C@@H](CC(N)=O)C(=O)N[C@@H](CCC(=O)O)C(=O)N[C@@H](c3ccccc3)C(=O)NCC(=O)N2)CSC[C@@H](C(N)=O)NC1=O` [17-69-07-N071, Ac-(17-69-07) Phg4] (Ac-CYNE[Phg]GCEDFYDIC-NH2; linker 1-7-14 via TBMB), under setting [1], the Kd amounted to 628 nM.

Regarding `CC[C@H](C)[C@@H]1NC(=O)[C@H](CC(=O)O)NC(=O)[C@H](Cc2ccc(O)cc2)NC(=O)[C@H](Cc2ccccc2)NC(=O)[C@H](CC(=O)O)NC(=O)[C@H](CCC(=O)O)NC(=O)[C@@H]2CSCc3cc(cc(c3)CSC[C@@H](C(=O)N[C@@H](C)C(N)=O)NC1=O)CSC[C@H](NC(=O)[C@H](C)N)C(=O)N[C@@H](CCSC)C(=O)N[C@@H](CC(N)=O)C(=O)N[C@@H](CCC(N)=O)C(=O)N[C@@H](Cc1ccccc1)C(=O)NCC(=O)N2` [17-69-12-N003, A-(17-69-12)-A] (H-ACMNQFGCEDFYDICA-NH2; linker 2-8-15 via TBMB), the Kd (Table 3, Competition, tracer A-(17-69-07)-A-Sar6-K(Fluorescein)) amounted to 3.7 ± 2.52 nM.

On to `CC[C@H](C)[C@@H]1NC(=O)[C@H](CC(=O)O)NC(=O)[C@H](Cc2ccc(O)cc2)NC(=O)[C@H](Cc2ccccc2)NC(=O)[C@H](CC(=O)O)NC(=O)[C@H](CCC(=O)O)NC(=O)[C@@H]2CSCc3cc(cc(c3)CSC[C@H](NC(C)=O)C(=O)N[C@@H](Cc3ccc(O)cc3)C(=O)N[C@@H](CC(N)=O)C(=O)N[C@@H](CCC(=O)O)C(=O)N[C@@H](Cc3ccccc3)C(=O)N[C@H](CCCNC(=N)N)C(=O)N2)CSC[C@@H](C(N)=O)NC1=O` [17-69-07-N120, Ac-(17-69-07) D-Arg5] (Ac-CYNEF[dR]CEDFYDIC-NH2; linker 1-7-14 via TBMB), for which the Kd (Table 7, substitutions at position 5) is 4.24 ± 1.48 nM.

Take `CC[C@H](C)[C@@H]1NC(=O)[C@H](CC(=O)O)NC(=O)[C@H](Cc2ccc(O)cc2)NC(=O)[C@H](Cc2ccccc2)NC(=O)[C@H](CC(=O)O)NC(=O)[C@H](CCC(=O)O)NC(=O)[C@@H]2CSCc3cc(cc(c3)CSC[C@H](NC(=O)[C@H](C)NC(=O)CN3CCN(CC(=O)O)CCN(CC(=O)O)CCN(CC(=O)O)CC3)C(=O)N[C@@H](Cc3ccc(O)cc3)C(=O)N[C@@H](CC(N)=O)C(=O)N[C@@H](CCC(=O)O)C(=O)N[C@@H](Cc3ccccc3)C(=O)NCC(=O)N2)CSC[C@@H](C(N)=O)NC1=O` [17-69-07-N144, DOTA-A-(17-69-07)]: the “potency / activity toward MT1-MMP, in words” value is given as “retains full potency to MT1-MMP”. The Kd (Table 15, DOTA-linked peptides) worked out at 0.5 nM.

Consider `CC[C@H](C)[C@@H]1NC(=O)[C@H](CC(=O)O)NC(=O)[C@H](Cc2c(F)c(F)c(F)c(F)c2F)NC(=O)[C@H](Cc2ccccc2)NC(=O)[C@H](CC(=O)O)NC(=O)[C@H](CCC(=O)O)NC(=O)[C@@H]2CSCc3cc(cc(c3)CSC[C@H](NC(C)=O)C(=O)N[C@@H](Cc3ccc(O)cc3)C(=O)N[C@@H](CC(N)=O)C(=O)N[C@@H](CCC(=O)O)C(=O)N[C@@H](Cc3ccccc3)C(=O)NCC(=O)N2)CSC[C@@H](C(N)=O)NC1=O` [17-69-07-N182, Ac-(17-69-07) 5FPhe9] (Ac-CYNEFGCEDF[Phe(F5)]DIC-NH2; linker 1-7-14 via TBMB), for which the Kd (Table 9, tolerated substitutions at positions 9 and 11) was found to be 13.1 nM.

As to `CC[C@H](C)[C@@H]1NC(=O)[C@H](CC(=O)O)NC(=O)[C@H](Cc2ccc(O)cc2)NC(=O)[C@H](Cc2ccccc2)NC(=O)[C@H](CC(=O)O)NC(=O)[C@H](CCC(=O)O)NC(=O)[C@@H]2CSCc3cc(cc(c3)CSC[C@@H](C(=O)N[C@@H](C)C(N)=O)NC1=O)CSC[C@H](NC(=O)[C@H](C)N)C(=O)N[C@@H](Cc1ccccc1)C(=O)NCC(=O)N[C@@H](CCC(=O)O)C(=O)N[C@@H](Cc1ccccc1)C(=O)NCC(=O)N2` [17-69-02-N001, A-(17-69-02)-A] (H-ACFGEFGCEDFYDICA-NH2; linker 2-8-15 via TBMB), the Kd (Table 2, FP method Competition, tracer A-(17-69-07)-A-Sar6-K(Fluorescein)) stood at 191 nM.

Turning to `CC[C@H](C)[C@@H]1NC(=O)[C@H](CC(=O)O)NC(=O)[C@H](Cc2ccc(O)cc2)NC(=O)[C@H](Cc2ccccc2)NC(=O)[C@H](CC(=O)O)NC(=O)[C@H](CCC(=O)O)NC(=O)[C@@H]2CSCc3cc(cc(c3)CSC[C@H](NC(C)=O)C(=O)N[C@@H](Cc3ccc(O)cc3)C(=O)N[C@@H](CC(N)=O)C(=O)N[C@@H](CCC(=O)O)C(=O)N[C@@H](C3CCCCC3)C(=O)NCC(=O)N2)CSC[C@@H](C(N)=O)NC1=O` [17-69-07-N065, Ac-(17-69-07) Chg4] (Ac-CYNE[Chg]GCEDFYDIC-NH2; linker 1-7-14 via TBMB), under setting [1], the Kd was above 5000 nM.

As for `CC[C@H](C)[C@@H]1NC(=O)[C@H](CC(=O)O)NC(=O)[C@H](Cc2ccc(O)cc2)NC(=O)[C@H](Cc2ccccc2)NC(=O)[C@H](CC(=O)O)NC(=O)[C@H](CCC(=O)O)NC(=O)[C@@H]2CSCc3cc(cc(c3)CSC[C@H](NC(=O)[C@H](C)NC(=O)CN3CCN(CC(=O)O)CCN(CC(=O)O)CCN(CC(=O)O)CC3)C(=O)N[C@@H](Cc3ccc(O)cc3)C(=O)N[C@@H](CC(N)=O)C(=O)N[C@@H](CCC(=O)O)C(=O)N[C@@H](Cc3ccccc3)C(=O)NCC(=O)N2)CSC[C@@H](C(N)=O)NC1=O` [17-69-07-N147, DOTA[Lu]-A-(17-69-07)], the Kd (Table 15, DOTA-linked peptides) was 0.95 ± 0.5 nM.

As for `CC[C@H](C)[C@@H]1NC(=O)[C@H](CC(=O)O)NC(=O)[C@H](Cc2ccc(O)cc2)NC(=O)[C@H](Cc2ccccc2)NC(=O)[C@H](CC(=O)O)NC(=O)[C@H](CCC(=O)O)NC(=O)[C@@H]2CSCc3cc(cc(c3)CSC[C@H](NC(C)=O)C(=O)N[C@@H](Cc3ccc(O)cc3)C(=O)N[C@@H](CC(N)=O)C(=O)N[C@@H](CCC(=O)O)C(=O)N[C@@H](Cc3ccc(O)cc3)C(=O)NCC(=O)N2)CSC[C@@H](C(N)=O)NC1=O` [17-69-07-N057, Ac-(17-69-07) Tyr4] (Ac-CYNEYGCEDFYDIC-NH2; linker 1-7-14 via TBMB), the Kd under setting [1] amounted to 1.78 ± 0.45 nM.
